# What was measured:
# aquatic organisms = assay: Overall toxicity scoring (minimum organism-specific toxicity score); details: scale 0-100; minimum of the organism-specific scores
# Protocol: Using the linear scoring scale in Table 5 (below), each of the three organism L(E)C50 values (i.e., LC50 or EC50 values) are transformed to an organism-specific toxicity score for the ingredient. If the organism-specific toxicity score is based on an estimated L(E)C50 value rather than an empirical L(E)C50 value, that score is reduced by an uncertainty penalty (e.g., 5 points).
# The overall ingredient toxicity score is determined as the minimum organism-specific toxicity score. If no score could be determined for one class of aquatic indicator organism (i.e., primary producer, primary consumer, secondary consumer), the overall ingredient toxicity score is reduced by an uncertainty penalty (e.g., 5 points). If no score could be determined for two classes of aquatic indicator organisms, the overall ingredient score is reduced by a larger uncertainty penalty (e.g., 10 points).
# The process used for ingredients that are organic compounds is also used for ingredients that are inorganic compounds with the following exceptions: (1) only empirical data are considered, as models for predicting the aquatic toxicity of metals are not widely available; (2) the toxicity of the ingredient and all plausible environmental degradants are calculated. The lowest Toxicity score among the ingredient and its plausible environmental degradants is assigned as the final Toxicity score for the ingredient.
# water flea [1] = details: 50% immobilization, empirical acute study; cited from earlier work
# fish [2] = details: 50% lethality, empirical acute study; cited from earlier work
# algae [3] = details: 50% inhibition in growth rate, empirical acute study; cited from earlier work
# fish [4] = assay: Acute aquatic toxicity, vertebrate/secondary consumer, 50% lethality; details: scale 0-100, from LC50 by Table 5
# water flea [5] = assay: Acute aquatic toxicity, invertebrate/primary consumer, 50% immobilization; details: scale 0-100, from EC50 by Table 5
# algae [6] = assay: Acute aquatic toxicity, aquatic plant/primary producer, 50% inhibition in growth rate; details: scale 0-100, from EC50 by Table 5
Compound,Toxicity score (aquatic organisms),Invertebrate EC50 (water flea [1]),Fish LC50 (fish [2]),Aquatic Plant EC50 (algae [3]),Fish toxicity score (fish [4]),Invertebrate toxicity score (water flea [5]),Aquatic Plant toxicity score (algae [6])
OCC(O)CO [Glycerin],100,"10,000 mg/L","5,000 mg/L","46,000 mg/L",100,100,100
[Zn+2] [Zn^2+],zero,–,–,–,–,–,–
[O]=[Zn] [zinc oxide],zero,–,–,–,–,–,–
